Where two headings read alike, the source gives them in different places.
What was measured:
Haemonchus contortus L3 = assay: microbe, parasite or virus in culture; format: cell-based; details: for minimal effective concentration: Haemonchus contortus, 96 h, read-out: HcL3 Minimal Effective Concentration (MEC)
D. immitis microfilariae = assay: Dirofilaria immitis, microfilariae (DiMF) in vitro motility assay; format: cell-based; details: for minimal effective concentration: Dirofilaria immitis, 72 h, read-out: DiMF minimally effective dose (MEC)
[1] = test system: Trichostrongylus colubriformis; assay: Jird efficacy model; format: in vivo; details: Trichostrongylus colubriformis, sc, 96 h, read-out: Jird % (percentage efficacy)

Compound | minimal effective concentration (Haemonchus contortus L3) [µM] | minimal effective concentration (D. immitis microfilariae) [µM] | inhibition in vivo at 10 mg/kg [1] [%] | HcL3 Minimal Effective Concentration (MEC) (Haemonchus contortus L3) [µM] | DiMF minimally effective dose (MEC) (D. immitis microfilariae) [µM] | DiMF minimally effective dose (MEC) (D. immitis microfilariae; decrease in microfilariae motility by subjective visual assessment, observed at 72 hours) [µM]
O=C(NCc1ccnc(F)c1)n1c2c(c3cc(C(F)(F)F)ccc31)CN(C/C=C/c1ccc(F)cc1F)CC2 [Example 417, (E)-2-(3-(2,4-difluorophenyl)allyl)-N-((2-fluoropyridin-4-yl)methyl)-8-(trifluoromethyl)-1,2,3,4-tetrahydro-5H-pyrido[4,3-b]indole-5-carboxamide] | 5.7 | 10 | 100 | – | – | –
N#Cc1ccc(/C=C/CN2CCc3c(c4ccc(C(F)(F)F)cc4n3C(=O)NCc3ccnc(F)c3)C2)cc1 [Example 164, (E)-2-(3-(4-cyanophenyl)allyl)-N-((2-fluoropyridin-4-yl)methyl)-7-(trifluoromethyl)-1,2,3,4-tetrahydro-5H-pyrido[4,3-b]indole-5-carboxamide] | 3.3 | 10 | 100 | – | – | –
O=C(NCc1ccnc(Cl)c1)n1c2c(c3c(Br)cccc31)CN(C/C=C/c1ccc(Cl)cc1)CC2 [Example 444, (E)-9-bromo-2-(3-(4-chlorophenyl)allyl)-N-((2-chloropyridin-4-yl)methyl)-1,2,3,4-tetrahydro-5H-pyrido[4,3-b]indole-5-carboxamide] | 0.7 | 2.4 | 100 | – | – | –
O=C(NCc1ccnc(Cl)c1)n1c2c(c3c(Cl)c(F)ccc31)CN(C/C=C/c1ccc(F)cc1)CC2 [Example 307, (E)-9-chloro-N-((2-chloropyridin-4-yl)methyl)-8-fluoro-2-(3-(4-fluorophenyl)allyl)-1,2,3,4-tetrahydro-5H-pyrido[4,3-b]indole-5-carboxamide] | 0.5 | 3.3 | 100 | – | – | –
N#Cc1ccc2c(c1)c1c(n2C(=O)NCc2ccnc(Cl)c2)CCN(C/C=C/c2cc(F)c(Cl)c(F)c2)C1 [Example 71, (E)-2-(3-(4-chloro-3,5-difluorophenyl)allyl)-N-((2-chloropyridin-4-yl)methyl)-8-cyano-1,2,3,4-tetrahydro-5H-pyrido[4,3-b]indole-5-carboxamide] | 0.2 | > 100 | – | – | – | –
O=C(NCc1ccnc(Cl)c1)N1c2ccc(Cl)cc2C2CN(C/C=C/c3ccc(Cl)c(Cl)c3)CCC21 (stereo not shown) [Example 517, (E)-8-chloro-N-((2-chloropyridin-4-yl)methyl)-2-(3-(3,4-dichlorophenyl)allyl)-1,2,3,4,4a,9b-hexahydro-5H-pyrido[4,3-b]indole-5-carboxamide] | – | – | – | 0.5 | 10.0 | –
O=C(NCc1ccnc(Cl)c1)n1c2c(c3c(Cl)cccc31)CN(C/C=C/c1ccc(C(F)(F)F)cn1)CC2 [Example 207, (E)-9-chloro-N-((2-chloropyridin-4-yl)methyl)-2-(3-(5-(trifluoromethyl)-pyridin-2-yl)allyl)-1,2,3,4-tetrahydro-5H-pyrido[4,3-b]indole-5-carboxamide] | 0.3 | 10 | – | – | – | –
N#Cc1ccc2c3c(n(C(=O)NCc4ccnc(Cl)c4)c2c1)CCN(C/C=C/c1ccc(Br)c(F)c1F)C3 [Example 14, (E)-2-(3-(4-bromo-2,3-difluorophenyl)allyl)-N-((2-chloropyridin-4-yl)methyl)-7-cyano-1,2,3,4-tetrahydro-5H-pyrido[4,3-b]indole-5-carboxamide] | 0.5 | > 100 | – | – | – | –
N#Cc1ccc2c(c1)c1c(n2C(=O)NCc2ccnc(Cl)c2)CCN(C/C=C/c2c(F)c(F)c(F)c(F)c2F)C1 [Example 83, (E)-N-((2-chloropyridin-4-yl)methyl)-8-cyano-2-(3-(perfluorophenyl)allyl)-1,2,3,4-tetrahydro-5H-pyrido[4,3-b]indole-5-carboxamide] | 0.1 | > 100 | – | – | – | –
O=C(NCc1ccnc(Cl)c1)n1c2c(c3cc4c(cc31)COC4)CN(C/C=C/c1ccc(C(F)(F)F)cc1)CC2 [Example 482, (E)-N-((2-chloropyridin-4-yl)methyl)-8-(3-(4-(trifluoromethyl)phenyl)allyl)-1,3,6,7,8,9-hexahydro-5H-furo[3,4-f]pyrido[4,3-b]indole-5-carboxamide] | 1.8 | 3.3 | – | – | – | –
N#Cc1ccc2c3c(n(C(=O)NCc4ccnc(Cl)c4)c2c1)CCN(C/C=C/c1ccc(F)c(F)c1)C3 [Example 28, (E)-N-((2-chloropyridin-4-yl)methyl)-7-cyano-2-(3-(3,4-difluorophenyl)allyl)-1,2,3,4-tetrahydro-5H-pyrido[4,3-b]indole-5-carboxamide] | 1.8 | 4.4 | – | – | – | –
N#Cc1cc2c(cc1F)c1c(n2C(=O)NCc2ccnc(Cl)c2)CCN(C/C=C/c2ccc(F)cc2)C1 [Example 175, (E)-N-((2-chloropyridin-4-yl)methyl)-7-cyano-8-fluoro-2-(3-(4-fluorophenyl)allyl)-1,2,3,4-tetrahydro-5H-pyrido[4,3-b]indole-5-carboxamide] | 1.8 | 10 | – | – | – | –
O=C(NCc1ccnc(Cl)c1)n1c2c(c3cc(Br)ccc31)CN(C/C=C/c1ccc(Cl)c(Cl)c1)CC2 [Example 186, (E)-8-bromo-N-((2-chloropyridin-4-yl)methyl)-2-(3-(3,4-dichlorophenyl)allyl)-1,2,3,4-tetrahydro-5H-pyrido[4,3-b]indole-5-carboxamide] | 1 | > 100 | – | – | – | –
O=C(NCc1cnc(Cl)s1)n1c2c(c3cccc(Cl)c31)CN(C/C=C/c1ccc(Cl)cc1)CC2 [Example 273, (E)-6-chloro-2-(3-(4-chlorophenyl)allyl)-N-((2-chlorothiazol-5-yl)methyl)-1,2,3,4-tetrahydro-5H-pyrido[4,3-b]indole-5-carboxamide] | > 100 | 18.2 | – | – | – | –
O=C(NCc1ccnc(Cl)c1)n1c2c(c3c(OC(F)(F)F)cccc31)CN(C/C=C/c1ccc(C(F)(F)F)cc1)CC2 [Example 363, (E)-N-((2-chloropyridin-4-yl)methyl)-9-(trifluoromethoxy)-2-(3-(4-(trifluoro-methyl)phenyl)allyl)-1,2,3,4-tetrahydro-5H-pyrido[4,3-b]indole-5-carboxamide] | > 100 | 33 | – | – | – | –
O=C(NCc1ccnc(F)c1)n1c2c(c3ccc(OC(F)(F)F)cc31)CN(C/C=C/c1cc(F)cc(F)c1)CC2 [Example 378, (E)-2-(3-(3,5-difluorophenyl)allyl)-N-((2-fluoropyridin-4-yl)methyl)-7-(trifluoromethoxy)-1,2,3,4-tetrahydro-5H-pyrido[4,3-b]indole-5-carboxamide] | 1.8 | 10 | – | – | – | –
O=C(NCc1ccnc(Cl)c1)n1c2c(c3cccc(Cl)c31)CN(C/C=C/c1ccc(C(F)(F)F)cc1)CC2 [Example 272, (E)-6-chloro-N-((2-chloropyridin-4-yl)methyl)-2-(3-(4-(trifluoromethyl)-phenyl)allyl)-1,2,3,4-tetrahydro-5H-pyrido[4,3-b]indole-5-carboxamide] | > 100 | 10 | – | – | – | –
O=C(NCc1ccnc(Cl)c1)n1c2c(c3c(OC(F)(F)F)cccc31)CN(C/C=C/c1ccc(Cl)cc1)CC2 [Example 354, (E)-2-(3-(4-chlorophenyl)allyl)-N-((2-chloropyridin-4-yl)methyl)-9-(trifluoromethoxy)-1,2,3,4-tetrahydro-5H-pyrido[4,3-b]indole-5-carboxamide] | 57.4 | 18.2 | – | – | – | –
N#Cc1ccc2c(c1)c1c(n2C(=O)NCc2ccnc(Cl)c2)CCN(C/C=C/c2ccc(F)c(C#N)c2)C1 [Example 98, (E)-N-((2-chloropyridin-4-yl)methyl)-8-cyano-2-(3-(3-cyano-4-fluorophenyl)allyl)-1,2,3,4-tetrahydro-5H-pyrido[4,3-b]indole-5-carboxamide] | 0.3 | > 100 | – | – | – | –
N#Cc1cc2c(cc1OC(F)(F)F)c1c(n2C(=O)NCc2ccnc(Cl)c2)CCN(C/C=C/c2ccc(Cl)cc2)C1 [Example 502, (E)-2-(3-(4-chlorophenyl)allyl)-N-((2-chloropyridin-4-yl)methyl)-7-cyano-8-(trifluoromethoxy)-1,2,3,4-tetrahydro-5H-pyrido[4,3-b]indole-5-carboxamide] | 18.2 | > 100 | – | – | – | –
N#Cc1ccc2c3c(n(C(=O)NCc4ccnc(Cl)c4)c2c1)CCN(C/C=C/c1ccc(F)cc1F)C3 [Example 26, (E)-N-((2-chloropyridin-4-yl)methyl)-7-cyano-2-(3-(2,4-difluorophenyl)allyl)-1,2,3,4-tetrahydro-5H-pyrido[4,3-b]indole-5-carboxamide] | 2.4 | 5.7 | – | – | – | –
O=C(NCc1ccnc(F)c1)n1c2c(c3cc(OC(F)(F)F)ccc31)CN(C/C=C/c1ccc(F)c(Cl)c1)CC2 [Example 404, (E)-2-(3-(3-chloro-4-fluorophenyl)allyl)-N-((2-fluoropyridin-4-yl)methyl)-8-(trifluoromethoxy)-1,2,3,4-tetrahydro-5H-pyrido[4,3-b]indole-5-carboxamide] | 1 | 18.2 | – | – | – | –
O=C(NCc1ccnc(Cl)c1)n1c2c(c3c4ccccc4ccc31)CN(C/C=C/c1ccc(Cl)cc1)CC2 [Example 436, (E)-10-(3-(4-chlorophenyl)allyl)-N-((2-chloropyridin-4-yl)methyl)-8,9,10,11-tetrahydro-7H-benzo[e]pyrido[4,3-b]indole-7-carboxamide] | > 100 | 18.2 | – | – | – | –
(E)-8-cyano-2-(3-(2,4-difluorophenyl)allyl)-N-((2-(trifluoromethyl)pyridin-4-yl)methyl)-1,2,3,4-tetrahydro-5H-pyrido[4,3-b]indole-5-carboxamide [Example 129] | – | – | – | 0.05 | – | 3.5
